Experimental data: ChEMBL document CHEMBL3044642, “Antimycobacterial activity of fractions and isolated compounds from Vetiveria zizanioides” (2012)
Converted amounts (≈) assume the structure as drawn.

What was measured:
Type in all cases: functional
[1] = tested on: Mycolicibacterium smegmatis; assay: Antimycobacterial activity against lomofloxacin-resistant Mycobacterium smegmatis Lom R5 after 24 hr by two-fold serial micro broth dilution method; conditions: Lom R5, 24 h
[2] = tested on: Mycolicibacterium smegmatis; assay: Antimycobacterial activity against ciprofloxacin,lomofloxacin and norflaxacin-resistant Mycobacterium smegmatis CSC-101 after 24 hr by two-fold serial micro broth dilution method; conditions: CSC-101, 24 h
[3] = tested on: Mycolicibacterium smegmatis; assay: Antimycobacterial activity against Mycobacterium smegmatis str. MC2 155 after 24 hr by two-fold serial micro broth dilution method; conditions: str. MC2 155, 24 h
[4] = tested on: Mycolicibacterium smegmatis; assay: Antimycobacterial activity against rifampicin,amphiciline and kanamycin-resistant Mycobacterium smegmatis MDR-40 after 24 hr by two-fold serial micro broth dilution method; conditions: MDR-40, 24 h
[5] = tested on: Mycolicibacterium smegmatis; assay: Antimycobacterial activity against rifampicin,tetracycline and chloramphenicol-resistant Mycobacterium smegmatis MDR-R after 24 hr by two-fold serial micro broth dilution method
[6] = tested on: Mycolicibacterium smegmatis; assay: Antimycobacterial activity against quinolones and ciprofloxacin-resistant Mycobacterium smegmatis MDRQ after 24 hr by two-fold serial micro broth dilution method

Compound | MIC [1] [mg/L] | MIC [2] [mg/L] | MIC [3] [mg/L] | MIC [4] [mg/L] | MIC [5] [mg/L] | MIC [6] [mg/L]
O=C(O)c1cn(C2CC2)c2cc(N3CCNCC3)c(F)cc2c1=O [CIPROFLOXACIN] | 25 (≈ 75.4 µM) | 3.12 (≈ 9.43 µM) | 0.78 (≈ 2.35 µM) | > 25 | 3.12 (≈ 9.43 µM) | 25 (≈ 75.4 µM)
CCCCC#CCCCC#CCCCCO | > 250 | 62.5 (≈ 284 µM) | 125 (≈ 567 µM) | 31.2 (≈ 142 µM) | 31.2 (≈ 142 µM) | 250 (≈ 1130 µM)
CCn1cc(C(=O)O)c(=O)c2ccc(C)nc21 [NALIDIXIC ACID] | 25 (≈ 108 µM) | 6.25 (≈ 26.9 µM) | 0.78 (≈ 3.36 µM) | 50 (≈ 215 µM) | 50 (≈ 215 µM) | 50 (≈ 215 µM)
CC1(C)CCC[C@@]2(C)C(CO)[C@H]3CC[C@H]2C3C1 (stereo not given in full) [HYDROXY JUNEPENE] | > 250 | 125 (≈ 529 µM) | 62.5 (≈ 264 µM) | 31.2 (≈ 132 µM) | 62.5 (≈ 264 µM) | > 250
CCn1cc(C(=O)O)c(=O)c2cc(F)c(N3CCNC(C)C3)c(F)c21 (stereo not given) [LOMEFLOXACIN] | > 50 | < 1 | 0.78 (≈ 2.22 µM) | 2.5 (≈ 7.12 µM) | 10 (≈ 28.5 µM) | > 50
